Results published in BigSolDB 2.1.

CS(=O)(=O)c1ccc(C=O)cc1
solubility (mole fraction)
Settings | in acetic acid | in acetone | in acetonitrile | in ethanol | in isopropanol | in methanol | in n-butanol | in n-propanol | in toluene
283.15 K | 0.00336 | 0.00798 | 0.00598 | 0.000869 | 0.000288 | 0.00206 | 0.000596 | 0.000541 | 0.000746
285.65 K | 0.00368 | 0.00872 | 0.00661 | 0.000944 | 0.000321 | 0.0022 | 0.000652 | 0.000587 | 0.000825
288.15 K | 0.00401 | 0.00937 | 0.00734 | 0.00103 | 0.000355 | 0.00242 | 0.000724 | 0.000659 | 0.000919
290.65 K | 0.00445 | 0.0104 | 0.00814 | 0.00117 | 0.000405 | 0.00266 | 0.000828 | 0.000742 | 0.00103
293.15 K | 0.00488 | 0.0114 | 0.00903 | 0.0013 | 0.000445 | 0.00295 | 0.000923 | 0.000835 | 0.00115
295.65 K | 0.00539 | 0.0126 | 0.0101 | 0.00143 | 0.000502 | 0.00325 | 0.00102 | 0.000933 | 0.00128
298.15 K | 0.00598 | 0.0136 | 0.0111 | 0.00158 | 0.00056 | 0.00358 | 0.00114 | 0.00105 | 0.00144
300.65 K | 0.00662 | 0.0148 | 0.0123 | 0.00174 | 0.000629 | 0.00392 | 0.00128 | 0.00115 | 0.00161
303.15 K | 0.00727 | 0.0161 | 0.0137 | 0.00192 | 0.000703 | 0.00431 | 0.0014 | 0.00126 | 0.0018
305.65 K | 0.00811 | 0.0174 | 0.0152 | 0.00212 | 0.000796 | 0.00471 | 0.00155 | 0.00141 | 0.002
308.15 K | 0.00895 | 0.0189 | 0.017 | 0.00235 | 0.000894 | 0.00518 | 0.00171 | 0.00157 | 0.00224
310.65 K | 0.00984 | 0.0206 | 0.019 | 0.00258 | 0.00101 | 0.00572 | 0.00191 | 0.00176 | 0.0025
313.15 K | 0.0108 | 0.0226 | 0.021 | 0.00284 | 0.00112 | 0.00623 | 0.00211 | 0.00194 | 0.00276
315.65 K | 0.0118 | 0.0245 | 0.023 | 0.00311 | 0.00125 | 0.00678 | 0.00232 | 0.00216 | 0.00308
318.15 K | 0.0129 | 0.0269 | 0.0252 | 0.00341 | 0.00139 | 0.00739 | 0.0026 | 0.00241 | 0.0034
